Results as given in the supplement of paper PMC9549728.

Assays:
Assay in all cases: IC50 (viability, PrestoBlue) (log10 nM)
Conditions in all cases: exposure time: 72 h
[1] = tested on: murine gastric organoid RAS-activated (Kras G12D; Tp53 R172H)
Protocol: (§1)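 Murine gastric corpus organoids (normal uninduced; RAS-activated Kras G12D/Tp53 R172H; diffuse Cdh1/Apc loss; WNT-activated Apc loss/Tp53 R172H) were seeded in Matrigel into pre-spotted 384-well plates. The plates held a 196-compound library at 6.7 nM to 25,004 nM (9 doses) and were incubated 72 h. Viability was read by PrestoBlue fluorescence (560/590 nm). IC50 came from non-linear regression (Prism), reported as log10 IC50 in nM, mean of 3 passages x 2 wells.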

[2] = tested on: murine gastric organoid WNT-activated (Apc fl/fl; Tp53 R172H)
Protocol: as §1

[3] = tested on: murine gastric organoid diffuse (Cdh1 fl/fl; Apc fl/fl)
Protocol: as §1

[4] = tested on: murine normal gastric organoid
Protocol: as §1

## COC1=CC(c2cc3ccccc3[nH]2)=N/C1=C\c1[nH]c(C)cc1C [Obatoclax]
[1]
  IC50 (log10 nM): 2.81
[2]
  IC50 (log10 nM): 2.26
[3]
  IC50 (log10 nM): 3.06
[4]
  IC50 (log10 nM): 2.31

## C=CC(=O)Nc1cc(Nc2nccc(-c3cn(C)c4ccccc34)n2)c(OC)cc1N(C)CCN(C)C [Osimertinib]
[1]
  IC50 (log10 nM): 3.89
[2]
  IC50 (log10 nM): 2.46
[3]
  IC50 (log10 nM): 3.05
[4]
  IC50 (log10 nM): 2.73

## C1=N/C2=N/c3ccc(OCCN4CCCC4)c(c3)COC/C=C/COCc3cccc(c3)C(=C1)N2 [Pacritinib]
[1]
  IC50 (log10 nM): 3.76
[2]
  IC50 (log10 nM): 2.91
[3]
  IC50 (log10 nM): 3.48
[4]
  IC50 (log10 nM): 3.23

## CC(=O)c1c(C)c2cnc(Nc3ccc(N4CCNCC4)cn3)nc2n(C2CCCC2)c1=O [Palbociclib]
[1]
  IC50 (log10 nM): 4.07
[2]
  IC50 (log10 nM): 4.13
[3]
  IC50 (log10 nM): 4.37
[4]
  IC50 (log10 nM): 4.24

## Cc1[nH]c2ccccc2c1CCNCc1ccc(/C=C/C(=O)NO)cc1 [Panobinostat]
[1]
  IC50 (log10 nM): 1.81
[2]
  IC50 (log10 nM): 3.02
[3]
  IC50 (log10 nM): 2.82
[4]
  IC50 (log10 nM): 3.17

## Cc1ccc(Nc2nccc(N(C)c3ccc4c(C)n(C)nc4c3)n2)cc1S(N)(=O)=O [Pazopanib]
[1]
  IC50 (log10 nM): > 4.4
[2]
  IC50 (log10 nM): > 4.4
[3]
  IC50 (log10 nM): 1.42
[4]
  IC50 (log10 nM): 4.21

## CCCCCCCCCCCCCCCCCCOP(=O)([O-])OC1CC[N+](C)(C)CC1 [Perifosine]
[1]
  IC50 (log10 nM): < 0.826
[2]
  IC50 (log10 nM): 1.16
[3]
  IC50 (log10 nM): > 4.4
[4]
  IC50 (log10 nM): < 0.826

## Cc1ccc(C(=O)Nc2ccc(CN3CCN(C)CC3)c(C(F)(F)F)c2)cc1C#Cc1cnc2cccnn12 [Ponatinib]
[1]
  IC50 (log10 nM): 3.27
[2]
  IC50 (log10 nM): 1.71
[3]
  IC50 (log10 nM): 3.08
[4]
  IC50 (log10 nM): 3.04

## CC(C)(C)c1cc(NC(=O)Nc2ccc(-c3cn4c(n3)sc3cc(OCCN5CCOCC5)ccc34)cc2)no1 [Quizartinib]
[1]
  IC50 (log10 nM): < 0.826
[2]
  IC50 (log10 nM): 2.01
[3]
  IC50 (log10 nM): 3.09
[4]
  IC50 (log10 nM): 3.06

## COc1cc(Nc2ncc(F)c(Nc3ccc4c(n3)N(COP(=O)(O)O)C(=O)C(C)(C)O4)n2)cc(OC)c1OC [R788 disodium hexahydrate]
[1]
  IC50 (log10 nM): 3.21
[2]
  IC50 (log10 nM): 2.5
[3]
  IC50 (log10 nM): 2.99
[4]
  IC50 (log10 nM): 3.46

## Cn1nccc1Nc1nccc(-c2ccn([C@H](CO)c3ccc(Cl)c(F)c3)c(=O)c2)n1 [Ravoxertinib]
[1]
  IC50 (log10 nM): 3.74
[2]
  IC50 (log10 nM): 3.44
[3]
  IC50 (log10 nM): > 4.4
[4]
  IC50 (log10 nM): 3.18

## CNC(=O)c1cc(Oc2ccc(NC(=O)Nc3ccc(Cl)c(C(F)(F)F)c3)c(F)c2)ccn1 [Regorafenib]
[1]
  IC50 (log10 nM): 4.14
[2]
  IC50 (log10 nM): 3.86
[3]
  IC50 (log10 nM): 3.97
[4]
  IC50 (log10 nM): 3.94

## CC1=C(/C=C/C(C)=C/C=C/C(C)=C/C(=O)O)C(C)(C)CCC1 [Retinoic acid]
[1]
  IC50 (log10 nM): 0.928
[2]
  IC50 (log10 nM): 3.82
[3]
  IC50 (log10 nM): > 4.4
[4]
  IC50 (log10 nM): > 4.4

## COc1cc(OC)c(/C=C/S(=O)(=O)Cc2ccc(OC)c(NCC(=O)O)c2)c(OC)c1 [Rigosertib sodium]
[1]
  IC50 (log10 nM): 1.35
[2]
  IC50 (log10 nM): 2.01
[3]
  IC50 (log10 nM): 1.55
[4]
  IC50 (log10 nM): 1.86
